These results are taken from PubChem BioAssay AID220 (DTP/NCI, 2004).

Where “and” joins values, the source holds several entries; their conditions need not be identical. Identical values can stand only once. Results filed as inconclusive are left out. Positions of bridges follow the written chain, without caps; N, C: chain ends. Non-standard residues stand in square brackets, D forms with d. Residues, ends and D or L forms follow the SMILES beside them. Chains are numbered I, II in the order given. *: point of attachment. Quinoxaline2carbonyl = O=C(c1cnc2ccccc2n1)*; NMeV = CN[CH](C(=O)O)C(C)C; NMeC = CN[CH](CS)C(=O)O

This test relates to CD8F1 mice, subcutaneous mammary adenocarcinoma, T/C%. The test is described as follows: NCI In Vivo Anticancer Drug Screen. Data for tumor model Mammary Adenocarcinoma CD8F1 (subcutaneous) in CD8F1. As to conditions: higher = larger tumour. The method in brief:
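Ratio of treated to vehicle-control outcome, based on either survival or tumor size, in mice bearing transplantable tumors given the test compound.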

Setting [1] is: endpoint: median tumor weight (est.), dose: 12.5 mg/kg/injection, schedule: Q07DX005 (ip), vehicle: saline.
The mark [2] stands for this setting: endpoint: median tumor weight (est.), dose: 25.0 mg/kg/injection, schedule: Q07DX005 (ip), vehicle: saline.
Setting [3] is: endpoint: median tumor weight (est.), dose: 12.5 mg/kg/injection, schedule: Q07DX005 (ip), vehicle: saline with Tween-80.
Where [4] appears, read: endpoint: median tumor weight (est.), dose: 50.0 mg/kg/injection, schedule: Q07DX005 (ip), vehicle: saline with Tween-80.
The mark [5] stands for this setting: endpoint: median tumor weight (est.), dose: 200.0 mg/kg/injection, schedule: Q07DX005 (ip), vehicle: saline with Tween-80.
Where [6] appears, read: endpoint: median tumor weight (est.), dose: 400.0 mg/kg/injection, schedule: Q07DX005 (ip), vehicle: saline with Tween-80.
Setting [7] is: endpoint: median tumor weight (est.), dose: 25.0 mg/kg/injection, schedule: Q07DX005 (ip), vehicle: saline with Tween-80.
[8] abbreviates: endpoint: median tumor weight (est.), dose: 100.0 mg/kg/injection, schedule: Q07DX005 (ip), vehicle: saline with Tween-80.

With `CN(C)CC(Cl)CCl` (stereo unspecified), the T/C by setting is: (endpoint: mean tumor weight, dose: 50.0 mg/kg/injection, schedule: Q07DX009 (ip), vehicle: saline) 39 % of control; (endpoint: mean tumor weight, dose: 100.0 mg/kg/injection, schedule: Q07DX006 (ip), vehicle: saline) 88 % of control; (endpoint: mean tumor weight, dose: 100.0 mg/kg/injection, schedule: Q07DX009 (ip), vehicle: saline) 94 % of control; (endpoint: mean tumor weight, dose: 200.0 mg/kg/injection, schedule: Q07DX006 (ip), vehicle: saline) 107 % of control; (endpoint: mean tumor weight, dose: 200.0 mg/kg/injection, schedule: Q07DX009 (ip), vehicle: saline) 24 % of control; under setting [1], 92 % of control. Further, the T/C reads like this: under setting [2], 97 % of control and 117 % of control; (endpoint: median tumor weight (est.), dose: 200.0 mg/kg/injection, schedule: Q07DX005 (ip), vehicle: saline) 62 % of control and 73 % of control; (endpoint: median tumor weight (est.), dose: 400.0 mg/kg/injection, schedule: Q07DX005 (ip), vehicle: saline) 37 % of control.

Turning to `CC1NC(=O)C(NC(=O)c2cnc3ccccc3n2)COC(=O)C(C(C)C)N(C)C(=O)C2CSSCC(C(=O)N(C)C(C(C)C)C(=O)OCC(NC(=O)c3cnc4ccccc4n3)C(=O)NC(C)C(=O)N2C)N(C)C1=O` (stereo unspecified) (I: Quinoxaline2carbonyl-SA[NMeC][NMeV] / II: Quinoxaline2carbonyl-SA[NMeC][NMeV]; ester I:1-II:C, I:C-II:1; disulfide I:3-II:3; configuration not given here), the T/C (endpoint: median tumor weight change, dose: 25.0 micrograms/kg/injection, schedule: Q01DX001 (ip), vehicle: Klucel (hydroxypropylcellulose) (HPC)) is 77 % of control; the T/C (endpoint: median tumor weight change, dose: 50.0 micrograms/kg/injection, schedule: Q01DX001 (ip), vehicle: Klucel (hydroxypropylcellulose) (HPC)) is 91 % of control; the T/C (endpoint: median tumor weight change, dose: 100.0 micrograms/kg/injection, schedule: Q01DX001 (ip), vehicle: Klucel (hydroxypropylcellulose) (HPC)) was 89 % of control; the T/C (endpoint: median tumor weight change, dose: 200.0 micrograms/kg/injection, schedule: Q01DX001 (ip), vehicle: Klucel (hydroxypropylcellulose) (HPC)) was 68 % of control; the T/C (endpoint: median tumor weight change, dose: 400.0 micrograms/kg/injection, schedule: Q01DX001 (ip), vehicle: Klucel (hydroxypropylcellulose) (HPC)) was 59 % of control.

For `O=NN(CCCl)C(=O)Oc1ccc(OC(=O)N(CCCl)N=O)cc1`, the T/C was 107 % of control (endpoint: median tumor weight change, dose: 25.0 mg/kg/injection, schedule: Q01DX001 (ip), vehicle: Klucel (hydroxypropylcellulose) (HPC)) and 75 % of control (endpoint: median tumor weight change, dose: 50.0 mg/kg/injection, schedule: Q01DX001 (ip), vehicle: Klucel (hydroxypropylcellulose) (HPC)).

As to `O=C1N[C@H]2[C@H](CS[C@H]2CCCCC(=O)N(CCP(c2ccccc2)c2ccccc2)CCP(c2ccccc2)c2ccccc2)N1`, the T/C (endpoint: median tumor weight change, dose: 125.0 mg/kg/injection, schedule: Q01DX001 (ip), vehicle: Klucel (hydroxypropylcellulose) (HPC)) was 97 % of control; the T/C (endpoint: median tumor weight change, dose: 250.0 mg/kg/injection, schedule: Q01DX001 (ip), vehicle: Klucel (hydroxypropylcellulose) (HPC)) is 70 % of control; the T/C (endpoint: median tumor weight change, dose: 500.0 mg/kg/injection, schedule: Q01DX001 (ip), vehicle: Klucel (hydroxypropylcellulose) (HPC)) is 85 % of control; the T/C (endpoint: median tumor weight change, dose: 1000.0 mg/kg/injection, schedule: Q01DX001 (ip), vehicle: Klucel (hydroxypropylcellulose) (HPC)) was 55 % of control; the T/C (endpoint: median tumor weight change, dose: 2000.0 mg/kg/injection, schedule: Q01DX001 (ip), vehicle: Klucel (hydroxypropylcellulose) (HPC)) is 56 % of control.

Take `c1csc(C[N+]23CN4CN(CN(C4)C2)C3)c1`: the T/C (endpoint: median tumor weight change, dose: 250.0 mg/kg/injection, schedule: Q01DX001 (ip), vehicle: saline) was 80 % of control.

As for `CC(=Nc1ccccc1)C1=C(O)C(Cc2ccccc2)NC1=O` (stereo unspecified), the T/C was 218 % of control and 100 % of control under setting [3]; 89 % of control under setting [4]; 211 % of control and 85 % of control under setting [5]; 39 % of control and 62 % of control under setting [6].

Turning to `Nc1ccc(C(OC(=O)c2cc3ccccc3c(Cc3c(O)c(C(=O)OC(c4ccc(N)cc4)(c4ccc(N)cc4)c4ccc(N)cc4)cc4ccccc34)c2O)(c2ccc(N)cc2)c2ccc(N)cc2)cc1`, the T/C is 73 % of control (endpoint: median tumor weight change, dose: 6.25 mg/kg/injection, schedule: Q01DX001 (ip), vehicle: saline with Tween-80); 97 % of control (endpoint: median tumor weight change, dose: 50.0 mg/kg/injection, schedule: Q01DX001 (ip), vehicle: saline with Tween-80); 61 % of control (endpoint: median tumor weight change, dose: 62.5 mg/kg/injection, schedule: Q01DX001 (ip), vehicle: saline with Tween-80).

Take `c1ccc2c(c1)-c1ccccc1C1NC21` (stereo unspecified): where the note is “endpoint: median tumor weight change, dose: 62.0 mg/kg/injection, schedule: Q01DX001 (ip), vehicle: saline with Tween-80”, the T/C was 58 % of control.

Take `O=C(N/N=C\c1cc(Br)cc(Br)c1O)N/N=C/c1cc(Br)cc(Br)c1O`: the T/C under setting [4] is 60 % of control, the T/C under setting [5] was 100 % of control and the T/C under setting [6] is 391 % of control.

Consider `CC1(C)CC23C4COC(=O)C2CCC1C3CC4=O` (stereo unspecified), for which the T/C runs as follows: (endpoint: median tumor weight (est.), dose: 18.0 mg/kg/injection, schedule: Q07DX005 (ip), vehicle: DMSO) 72 % of control; (endpoint: median tumor weight (est.), dose: 18.0 mg/kg/injection, schedule: Q07DX005 (ip), vehicle: Klucel (hydroxypropylcellulose) (HPC)) 98 % of control; (endpoint: median tumor weight (est.), dose: 36.0 mg/kg/injection, schedule: Q07DX005 (ip), vehicle: DMSO) 79 % of control; (endpoint: median tumor weight (est.), dose: 36.0 mg/kg/injection, schedule: Q07DX005 (ip), vehicle: Klucel (hydroxypropylcellulose) (HPC)) 89 % of control; (endpoint: median tumor weight (est.), dose: 72.0 mg/kg/injection, schedule: Q07DX005 (ip), vehicle: Klucel (hydroxypropylcellulose) (HPC)) 97 % of control; (endpoint: median tumor weight (est.), dose: 144.0 mg/kg/injection, schedule: Q07DX005 (ip), vehicle: Klucel (hydroxypropylcellulose) (HPC)) 71 % of control. Besides, the T/C by setting is: (endpoint: median tumor weight (est.), dose: 288.0 mg/kg/injection, schedule: Q07DX005 (ip), vehicle: DMSO) 87 % of control; (endpoint: median tumor weight (est.), dose: 288.0 mg/kg/injection, schedule: Q07DX005 (ip), vehicle: Klucel (hydroxypropylcellulose) (HPC)) 66 % of control.

For `CC(=O)Nc1ccc(O)c(O)c1`, the T/C reads like this: under setting [7], 107 % of control; under setting [4], 81 % of control; under setting [8], 79 % of control; under setting [5], 76 % of control; under setting [6], 114 % of control; (endpoint: median tumor weight (est.), dose: 800.0 mg/kg/injection, schedule: Q07DX005 (ip), vehicle: saline with Tween-80) 159 % of control.

In the case of `CCc1ccccc1N1CCN(C(=O)c2cc(OC)c(OC)c(OC)c2)CC1`, the T/C is 68 % of control (endpoint: median tumor weight (est.), dose: 12.5 mg/kg/injection, schedule: Q07DX003 (ip), vehicle: Klucel (hydroxypropylcellulose) (HPC)); 50 % of control (endpoint: median tumor weight (est.), dose: 12.5 mg/kg/injection, schedule: Q07DX004 (ip), vehicle: Klucel (hydroxypropylcellulose) (HPC)); 167 % of control and 269 % of control (endpoint: median tumor weight (est.), dose: 50.0 mg/kg/injection, schedule: Q04DX005 (ip), vehicle: Klucel (hydroxypropylcellulose) (HPC)); 182 % of control (endpoint: median tumor weight (est.), dose: 50.0 mg/kg/injection, schedule: Q07DX003 (ip), vehicle: Klucel (hydroxypropylcellulose) (HPC)); 152 % of control and 206 % of control (endpoint: median tumor weight (est.), dose: 100.0 mg/kg/injection, schedule: Q04DX005 (ip), vehicle: Klucel (hydroxypropylcellulose) (HPC)); 112 % of control (endpoint: median tumor weight (est.), dose: 100.0 mg/kg/injection, schedule: Q07DX003 (ip), vehicle: Klucel (hydroxypropylcellulose) (HPC)). Moreover, the T/C was 274 % of control (endpoint: median tumor weight (est.), dose: 100.0 mg/kg/injection, schedule: Q07DX004 (ip), vehicle: Klucel (hydroxypropylcellulose) (HPC)); 111 % of control (endpoint: median tumor weight (est.), dose: 200.0 mg/kg/injection, schedule: Q07DX003 (ip), vehicle: Klucel (hydroxypropylcellulose) (HPC)); 44 % of control (endpoint: median tumor weight (est.), dose: 400.0 mg/kg/injection, schedule: Q04DX005 (ip), vehicle: Klucel (hydroxypropylcellulose) (HPC)); 36 % of control (endpoint: median tumor weight (est.), dose: 400.0 mg/kg/injection, schedule: Q07DX003 (ip), vehicle: Klucel (hydroxypropylcellulose) (HPC)).

Regarding `CN1CCN(CCCN2c3ccccc3Sc3ccc(C(F)(F)F)cc32)CC1`, the T/C (endpoint: median tumor weight (est.), dose: 6.25 mg/kg/injection, schedule: Q07DX005 (ip), vehicle: saline with Tween-80) is 178 % of control; the T/C (endpoint: median tumor weight (est.), dose: 6.25 mg/kg/injection, schedule: Q07DX005 (ip), vehicle: saline) was 183 % of control; the T/C under setting [3] was 202 % of control; the T/C under setting [1] was 97 % of control; the T/C under setting [7] is 65 % of control; the T/C under setting [2] was 108 % of control. For the same compound, the T/C was 162 % of control (endpoint: median tumor weight (est.), dose: 50.0 mg/kg/injection, schedule: Q07DX005 (ip), vehicle: saline); 95 % of control under setting [8]; 70 % of control (endpoint: median tumor weight (est.), dose: 100.0 mg/kg/injection, schedule: Q07DX005 (ip), vehicle: saline).
